Experimental data as given in US10105367B2, “Therapeutic thiophene-, furan-, and pyridine-fused azolopyrimidin-5-(6h)-ones” (Dart Neuroscience (Cayman) Ltd., priority 2012, dated 2018).

molecular target: human PDE1B (Homo sapiens (Human), UniProt Q01064); test: PDE1B inhibitory assay (IMAP TR-FRET); conditions: PDE1B pIC50, negative log of half-maximal molar inhibitory concentration; 200 nM FAM-cAMP, Calmodulin, CaCl2

| SMILES | IC50 |
| --- | --- |
| O=c1n(Cc2ccccc2Cl)c2sccc2c2ncnn12 [Example 1, 6-(2-Chlorobenzyl)thieno[3,2-e][1,2,4]triazolo[1,5-c]pyrimidin-5(6H)-one] | 1000 to 10000 nM |
| O=c1n(Cc2cccc(Cl)c2)c2sccc2c2ncnn12 [Example 2] | 1000 to 10000 nM |
| Cc1csc2c1c1ncnn1c(=O)n2Cc1ccc(Cl)cc1 [Example 3] | 100 to 1000 nM |
| O=c1n(Cc2ccc(Cl)cc2)c2sccc2c2ncnn12 [Example 5] | 100 to 1000 nM |
| Cc1csc2c1c1ncnn1c(=O)n2Cc1ccccc1 [Example 6] | 100 to 1000 nM |
| O=c1n(Cc2ccccc2Cl)c2sc(Cc3ccccc3)cc2c2ncnn12 [Example 8] | 100 to 1000 nM |
| O=c1n(Cc2cccc(Cl)c2)c2sc(Cc3ccccc3)cc2c2ncnn12 [Example 9] | 100 to 1000 nM |
| Cc1csc2c1c1ncnn1c(=O)n2Cc1ccccc1Cl [Example 10] | 1000 to 10000 nM |
| Cc1csc2c1c1ncnn1c(=O)n2Cc1cccc(Cl)c1 [Example 11] | 100 to 1000 nM |
| Cc1cc2c(s1)n(Cc1ccccc1)c(=O)n1ncnc21 [Example 12] | 1000 to 10000 nM |
| Cc1cc2c(s1)n(Cc1ccccc1Cl)c(=O)n1ncnc21 [Example 13] | 1000 to 10000 nM |
| Cc1cc2c(s1)n(Cc1ccc(Cl)cc1)c(=O)n1ncnc21 [Example 15] | 100 to 1000 nM |
| Cc1cc2c(s1)n(Cc1cccc(Cl)c1)c(=O)n1ncnc21 [Example 16] | 1000 to 10000 nM |
| O=c1n(Cc2ccccc2)c2sc(Cc3ccccc3)cc2c2ncnn12 [Example 17] | 100 to 1000 nM |
| O=c1n(Cc2ccc(-c3ccccc3)cc2)c2sc(Cc3ccccc3)cc2c2ncnn12 [Example 18] | 1000 to 10000 nM |
| CC(C)CCc1cc2c(s1)n(Cc1ccccc1Cl)c(=O)n1ncnc21 [Example 19] | 1000 to 10000 nM |

| SMILES | IC50 |
| --- | --- |
| CC(C)CCc1cc2c(s1)n(Cc1cccc(Cl)c1)c(=O)n1ncnc21 [Example 20] | 1000 to 10000 nM |
| O=c1n(Cc2ccc(Cl)cc2)c2sc(Cc3ccccc3)cc2c2ncnn12 [Example 22] | 100 to 1000 nM |
| CC(C)CCc1cc2c(s1)n(Cc1ccc(Cl)cc1)c(=O)n1ncnc21 [Example 23] | 100 to 1000 nM |
| O=c1n(Cc2ccccc2)c2sccc2c2ncnn12 [Example 24] | 1000 to 10000 nM |
| CC(C)CCc1cc2c(s1)n(Cc1ccccc1)c(=O)n1ncnc21 [Example 25] | 100 to 1000 nM |
| Cc1sc2c(c1C)c1ncnn1c(=O)n2Cc1ccc(Cl)cc1 [Example 26] | 100 to 1000 nM |
| COc1ccc(Cn2c(=O)n3ncnc3c3ccsc32)cc1 [Example 27] | 100 to 1000 nM |
| COc1ccc(Cn2c(=O)n3ncnc3c3c(C)csc32)cc1 [Example 28] | 100 to 1000 nM |
| COc1ccc(Cn2c(=O)n3ncnc3c3cc(CN(C)C)sc32)cc1 [Example 30] | 100 to 1000 nM |
| COc1ccc(Cn2c(=O)n3ncnc3c3cc(CN4CCN(C)CC4)sc32)cc1 [Example 32] | 100 to 1000 nM |
| COc1ccc(Cn2c(=O)n3ncnc3c3cc(-c4c(C)noc4C)sc32)cc1 [Example 42] | 100 to 1000 nM |
| COc1ccc(Cn2c(=O)n3ncnc3c3c(C)c(CN4CCCC4)sc32)cc1 [Example 43, 6-(4-Methoxybenzyl)-9-methyl-8-(pyrrolidin-1-ylmethyl)thieno[3,2-e][1,2,4]triazolo[1,5-c]pyrimidin-5(6H)-one] | 100 to 1000 nM |
| COc1ccc(Cn2c(=O)n3ncnc3c3c(C)c(CN4CCNCC4)sc32)cc1 [Example 49] | 100 to 1000 nM |
| COc1ccc(Cn2c(=O)n3ncnc3c3c(C)c(CN4C[C@@H](C)N[C@@H](C)C4)sc32)cc1 [Example 72] | 100 to 1000 nM |
| COc1ccc(Cn2c(=O)n3ncnc3c3c(C)c(Br)sc32)cc1 [Example 76, 8-Bromo-6-(4-methoxybenzyl)-9-methylthieno[3,2-e][1,2,4]triazolo[1,5-c]pyrimidin-5(6H)-one] | 100 to 1000 nM |
| COc1ccc(Cn2c(=O)n3ncnc3c3c(C)c(CO)sc32)cc1 [Example 77, 8-(Hydroxymethyl)-6-(4-methoxybenzyl)-9-methylthieno[3,2-e][1,2,4]triazolo[1,5-c]pyrimidin-5(6H)-one] | 100 to 1000 nM |

same assay, conditions: negative log of half-maximal molar inhibitory concentration; 200 nM FAM-cAMP, Calmodulin, CaCl2

| SMILES | PDE1B pIC50 |
| --- | --- |
| O=c1n(Cc2ccc(-c3ccccc3)cc2)c2sccc2c2ncnn12 [Example 4] | <5 |
| Cc1csc2c1c1ncnn1c(=O)n2Cc1ccc(-c2ccccc2)cc1 [Example 7] | <5 |
| Cc1cc2c(s1)n(Cc1ccc(-c3ccccc3)cc1)c(=O)n1ncnc21 [Example 14] | <5 |
| CC(C)CCc1cc2c(s1)n(Cc1ccc(-c3ccccc3)cc1)c(=O)n1ncnc21 [Example 21] | <5 |
| COc1ccc(Cn2c(=O)n3ncnc3c3cc(CN4CCCOCC4)sc32)cc1 [Example 29, 8-((1,4-Oxazepan-4-yl)methyl)-6-(4-methoxybenzyl)thieno[3,2-e][1,2,4]triazolo[1,5-c]pyrimidin-5(6H)-one] | >7 |
| COc1ccc(Cn2c(=O)n3ncnc3c3cc(CN4CCOCC4)sc32)cc1 [Example 31] | >7 |
| COc1ccc(Cn2c(=O)n3ncnc3c3cc(CN4C[C@@H](C)O[C@@H](C)C4)sc32)cc1 [Example 33] | >7 |
| CCN1CCN(Cc2cc3c(s2)n(Cc2ccc(OC)cc2)c(=O)n2ncnc32)CC1=O [Example 34] | >7 |
| COc1ccc(Cn2c(=O)n3ncnc3c3cc(CN4CCN(S(C)(=O)=O)CC4)sc32)cc1 [Example 35] | >7 |
| COc1ccc(Cn2c(=O)n3ncnc3c3cc(CN4CCOC(C)(C)C4)sc32)cc1 [Example 36] | >7 |
| COc1ccc(Cn2c(=O)n3ncnc3c3cc(CN4CC5CC4CO5)sc32)cc1 (stereo not drawn) [Example 37] | >7 |
| COc1ccc(Cn2c(=O)n3ncnc3c3cc(CN4CC5(CCOCC5)C4)sc32)cc1 [Example 38] | >7 |
| COc1ccc(Cn2c(=O)n3ncnc3c3cc(CN4CCC5(CC4)COC5)sc32)cc1 [Example 39] | >7 |
| COc1ccc(Cn2c(=O)n3ncnc3c3cc(CN4CCN5C(=O)OCC5C4)sc32)cc1 (stereo not drawn) [Example 40] | >7 |
| COc1ccc(Cn2c(=O)n3ncnc3c3cc(-c4cc(C(F)(F)F)nn4C)sc32)cc1 [Example 41, 6-(4-Methoxybenzyl)-8-(1-methyl-3-(trifluoromethyl)-1H-pyrazol-5-yl)thieno[3,2-e][1,2,4]triazolo[1,5-c]pyrimidin-5(6H)-one] | >7 |
| COc1ccc(Cn2c(=O)n3ncnc3c3c(C)c(CN4CCOCC4)sc32)cc1 [Example 44] | >7 |
| COc1ccc(Cn2c(=O)n3ncnc3c3c(C)c(CN(C)C)sc32)cc1 [Example 45] | >7 |
| COc1ccc(Cn2c(=O)n3ncnc3c3c(C)c(CN(C)C4CC4)sc32)cc1 [Example 46] | >7 |
| COc1ccc(Cn2c(=O)n3ncnc3c3c(C)c(CN4CCC(O)CC4)sc32)cc1 [Example 47] | >7 |
| COc1ccc(Cn2c(=O)n3ncnc3c3c(C)c(CN(CCO)Cc4ccccc4)sc32)cc1 [Example 48] | >7 |
| COc1ccc(Cn2c(=O)n3ncnc3c3c(C)c(CNCC4(C)COC4)sc32)cc1 [Example 50] | >7 |
| COc1ccc(Cn2c(=O)n3ncnc3c3c(C)c(CN4CCN(C(C)=O)CC4)sc32)cc1 [Example 51] | >7 |

| SMILES | PDE1B pIC50 |
| --- | --- |
| COc1ccc(Cn2c(=O)n3ncnc3c3c(C)c(CNCc4cccnc4)sc32)cc1 [Example 52] | >7 |
| COc1ccc(Cn2c(=O)n3ncnc3c3c(C)c(CN4CCNC(=O)C4)sc32)cc1 [Example 53] | >7 |
| COc1ccc(Cn2c(=O)n3ncnc3c3c(C)c(CN(C)CC4CCCO4)sc32)cc1 (stereo not drawn) [Example 54] | >7 |
| COc1ccc(Cn2c(=O)n3ncnc3c3c(C)c(CN4C[C@@H](C)O[C@@H](C)C4)sc32)cc1 [Example 55] | >7 |
| COc1ccc(Cn2c(=O)n3ncnc3c3c(C)c(CN4Cc5ccccc5C4)sc32)cc1 [Example 56] | >7 |
| COc1ccc(Cn2c(=O)n3ncnc3c3c(C)c(CNC4CC4)sc32)cc1 [Example 57] | >7 |
| COC[C@@H]1CCCN1Cc1sc2c(c1C)c1ncnn1c(=O)n2Cc1ccc(OC)cc1 [Example 58] | >7 |
| COc1ccc(Cn2c(=O)n3ncnc3c3c(C)c(CN(C)CC4CCOC4)sc32)cc1 (stereo not drawn) [Example 59] | >7 |
| COc1ccc(Cn2c(=O)n3ncnc3c3c(C)c(CN4CCCOCC4)sc32)cc1 [Example 61] | >7 |
| COc1ccc(Cn2c(=O)n3ncnc3c3c(C)c(CN4CCN(S(C)(=O)=O)CC4)sc32)cc1 [Example 63] | >7 |
| COc1ccc(Cn2c(=O)n3ncnc3c3c(C)c(CN4CCN(C(C)C)CC4)sc32)cc1 [Example 64] | >7 |
| COc1ccc(Cn2c(=O)n3ncnc3c3c(C)c(CN4CC5CC4CO5)sc32)cc1 (stereo not drawn) [Example 65] | >7 |
| CCN1CCN(Cc2sc3c(c2C)c2ncnn2c(=O)n3Cc2ccc(OC)cc2)CC1=O [Example 66] | >7 |
| COc1ccc(Cn2c(=O)n3ncnc3c3c(C)c(CN4CC5CCC(C4)O5)sc32)cc1 [Example 67] | >7 |
| CCC1CN(Cc2sc3c(c2C)c2ncnn2c(=O)n3Cc2ccc(OC)cc2)CCO1 (stereo not drawn) [Example 68] | >7 |
| COc1ccc(Cn2c(=O)n3ncnc3c3c(C)c(CN4CCOC(C)(C)C4)sc32)cc1 [Example 69] | >7 |
| COc1ccc(Cn2c(=O)n3ncnc3c3c(C)c(CN4CCOC(C)C4)sc32)cc1 (stereo not drawn) [Example 70] | >7 |
| COc1ccc(Cn2c(=O)n3ncnc3c3c(C)c(CN4CCOCC4C)sc32)cc1 (stereo not drawn) [Example 71] | >7 |
| COc1ccc(Cn2c(=O)n3ncnc3c3c(C)c(CN4CCN(C)C(C)C4)sc32)cc1 (stereo not drawn) [Example 73] | >7 |
| COc1ccc(Cn2c(=O)n3ncnc3c3c(C)c(CN4CCN(C)C(C)(C)C4)sc32)cc1 [Example 74] | >7 |
| COc1ccc(Cn2c(=O)n3ncnc3c3c(C)c(CN4CCN5CCC[C@H]5C4)sc32)cc1 [Example 75] | >7 |
